In patent publication US7183269B2, “Synergistic compositions for the selective control of tumor tissue” (priority 1997, dated 2007):

Columns and labels:
RT112 = assay: Cell Death Detection ELISA (apoptosis kit) with RT112 as a function of pH; format: cell-based, human
Protocol: The measurements were carried out using a “Cell Death Detection ELISA” kit, Cat. No. 1774 425 commercially available from Boehringer (Mannheim). The process instructions are additionally supplied by Boehringer.
The OD value corresponds to the cell death.
The results of the experiments are summarized in FIGS. 1 to 3, which correspond to Tables 1 to 3. In the figures, the cell death is recorded in a ELISA (apoptosis kit) with RT112 as a function of the pH. That is to say the data on the Y axis of the figures is a measure of the cell death; the pH of the cells is indicated on the X axis. FIG. 1 and FIG. 2 show experiments in which individual compounds were employed. […] It stands out that at a pH of between 6.5 and 7.0 the compositions according to the invention cause a cell death which is preferably in the vicinity of or above the CAM value, which virtually corresponds to a complete destruction of the tumor tissue.
The apoptosis-inducing substance CAM used in the experiments is camptothecin (CAM value). In the experiments, positive control means that instead of the apoptotic cancer cells induced by the substances a histone-DNA complex with known detection sensitivity is employed for detection, i.e. an artificial apoptosis product is provided. In the experiments, negative control means that the same detection procedure is carried out, but without addition of substances or substance mixtures.
(§1) The human bladder tumor cell line. RT112 or the human chronic myeloid leukemia cell line K562 were purchased from DKFZ Tumorzell—und datenbank (Institut für experimentelle Pathologie, Heidelberg, FRG) or DSM (Deutsche Sammlung von Mikroorganismen und Zellkulturen GmbH, Braunschweig, FRG), respectively. The cells were cultured in HEPES-buffered RPMI 1640 (SIGMA, Deisenhofen, FRG) supplemented with 2 mM L-glutamine (BIOCHROM, Berlin, FRG), 1% NEAE (BIOCHROM), 10% heat-inactivated fetal calf serum (BIOCHROM), 100 U/ml penicillin and 50 μg/ml streptomycin (BIOCHROM) at 37° C. and 5% CO2. Only mycoplasma-free cell cultures were used; this was frequently tested using a specific detection kit (BOEHRINGER MANNHEIM, Mannheim, FRG).

[1] = system: RT112 tumor cells (bladder carcinoma); assay: [3H]-TdR incorporation assay (proliferation); format: cell-based, human; settings: in dependence of extracellular pH, FIG. 4
Excerpt: The anticancer activity of salicylate combinations can also be examined by in vitro experiments with tumor cell lines. As a relevant criterion of toxic effects on cancer cells the proliferation rate can be considered. The proliferation rate effected by salicylate combinatioins can be measured in dependence of the extracellular pH-milieu. (Details for cell cultures, see Materials & Methods below.)
The effect of salicylate combinations on the proliferation of RT112 tumor cells is quantitated by the measurement of incorporated tritiated thymidine ([^3H]-TdR) into the cellular DNA of the cancer cells by liquid scintillation counting (LSC). (Method details, see Material & Methods below.)
as §1
The influence of cytotoxic molecules on the proliferation of RT112 tumor cells was quantitated by the measurement of the incorporated tritiated thymidine ([^3H]-TdR) into the cellular DNA of the tumor cells by liquid scintillation counting (LSC). In brief, RT112 cells were harvested, washed twice and resuspended in culture media (2.5×10^5/ml). 100 μl/well of the RT112 cell suspension were seeded into 96 well microtiter plates (BECTON DICKINSON) and incubated over night at 37° C. and 5% CO2. The supernatant was replaced by 90 μl pH-adjusted culture medium (pH 6.0–7.4) and 10 μl of the solution of preferred substances or 100 μl/well pH-adjusted culture medium alone (control). The cells were incubated for various time periods at 37° C. and 5% CO2. Thereafter, cells were washed twice, reincubated in fresh pH-adjusted culture medium and pulsed for 24 h by the addition of 23.125 kBq [^3H]TdR/well (925 kBq/ml; AMERSHAM, Braunschweig, FRG). After freezing and thawing, radioactive DNA of the cultures were transferred to glass fiber filters with an automatic cell harvester (PHARMACIA). The incorporated radioactivity was measured in a liquid scintillation counter (PHARMACIA).

[2] = Table 2, measurement after 35 minutes, 10 mM, initial pH 6.0
[3] = Table 2, measurement after 35 minutes, 10 mM, initial pH 6.5
[4] = Table 2, measurement after 35 minutes, 10 mM, initial pH 7.0
[5] = Table 2, measurement after 35 minutes, 10 mM, initial pH 7.4
[6] = Table 2, measurement after 35 minutes, 15 mM, initial pH 6.0
[7] = Table 2, measurement after 35 minutes, 15 mM, initial pH 6.5
[8] = Table 2, measurement after 35 minutes, 15 mM, initial pH 7.0
[9] = Table 2, measurement after 35 minutes, 15 mM, initial pH 7.4

## CC(=O)Oc1ccccc1C(=O)O [Substance 121, acetylsalicylic acid (2-acetoxybenzoic acid)]
RT112; [2]
  OD (405–490 nm): 1.282
RT112; [3]
  OD (405–490 nm): 0.163
RT112; [4]
  OD (405–490 nm): 0.413
RT112; [5]
  OD (405–490 nm): 1.508
[1]
  effect on the proliferation rate: no effect or minor effect

## CC(=O)Oc1ccc(C(=O)O)c(OC(C)=O)c1 [Substance 132, 2,4-diacetoxybenzoic acid]
RT112; [2]
  OD (405–490 nm): 2.856
RT112; [3]
  OD (405–490 nm): 0.183
RT112; [4]
  OD (405–490 nm): 0.088
RT112; [5]
  OD (405–490 nm): 0.502
RT112; Table 3, measurement after 20 minutes, 5 mM, initial pH 6.0
  OD (405–490 nm): 0.407
RT112; Table 3, measurement after 20 minutes, 5 mM, initial pH 6.5
  OD (405–490 nm): 0.371
RT112; Table 3, measurement after 20 minutes, 5 mM, initial pH 7.0
  OD (405–490 nm): 0.422
RT112; Table 3, measurement after 20 minutes, 5 mM, initial pH 7.4
  OD (405–490 nm): 0.916

## O=C(O)c1c(O)cc(O)cc1O [DHSA, 2,4,6-trihydroxybenzoic acid]
[1]
  effect on the proliferation rate: no effect or minor effect

## Nc1ccc(C(=O)O)c(O)c1 [Substance 58a, 2-hydroxy-4-aminobenzoic acid]
RT112; [6]
  OD (405–490 nm): 0.320
RT112; [7]
  OD (405–490 nm): 0.282
RT112; [8]
  OD (405–490 nm): 0.574
RT112; [9]
  OD (405–490 nm): 1.835
[1]
  effect on the proliferation rate: no effect or minor effect

## O=C(O)c1cc(-c2ccc(F)cc2F)ccc1O [Diflu, 5-(2,4-difluoro-phenyl)salicylic acid]
[1]
  effect on the proliferation rate: no effect or minor effect

## O=C(O)c1c(O)cccc1O [Substance 136, 2,6-dihydroxybenzoic acid]
RT112; Table 1, measurement after 35 minutes, 5 mM, initial pH 6.0
  OD (405–490 nm): 0.187
RT112; Table 1, measurement after 35 minutes, 5 mM, initial pH 6.5
  OD (405–490 nm): 0.918
RT112; Table 1, measurement after 35 minutes, 5 mM, initial pH 7.0
  OD (405–490 nm): 0.321
RT112; Table 1, measurement after 35 minutes, 5 mM, initial pH 7.4
  OD (405–490 nm): 0.382
RT112; Table 1, measurement after 35 minutes, 7 mM, initial pH 6.0
  OD (405–490 nm): 0.221
RT112; Table 1, measurement after 35 minutes, 7 mM, initial pH 6.5
  OD (405–490 nm): 1.287
RT112; Table 1, measurement after 35 minutes, 7 mM, initial pH 7.0
  OD (405–490 nm): 0.524
RT112; Table 1, measurement after 35 minutes, 7 mM, initial pH 7.4
  OD (405–490 nm): 0.816
[1]
  effect on the proliferation rate: no effect or minor effect

## CC[C@@]1(O)C(=O)OCc2c1cc1n(c2=O)Cc2cc3ccccc3nc2-1 [CAM, camptothecin]
RT112; Table 1, measurement after 35 minutes, 800 ng/ml, initial pH 6.0
  OD (405–490 nm): 0.818
RT112; Table 1, measurement after 35 minutes, 800 ng/ml, initial pH 6.5
  OD (405–490 nm): 3.037
RT112; Table 1, measurement after 35 minutes, 800 ng/ml, initial pH 7.0
  OD (405–490 nm): 2.725
RT112; Table 1, measurement after 35 minutes, 800 ng/ml, initial pH 7.4
  OD (405–490 nm): 2.416
RT112; Table 2, measurement after 35 minutes, 160 ng/ml, initial pH 6.0
  OD (405–490 nm): 0.344
RT112; Table 2, measurement after 35 minutes, 160 ng/ml, initial pH 6.5
  OD (405–490 nm): 0.711
RT112; Table 2, measurement after 35 minutes, 160 ng/ml, initial pH 7.0
  OD (405–490 nm): 1.220
RT112; Table 2, measurement after 35 minutes, 160 ng/ml, initial pH 7.4
  OD (405–490 nm): 1.923
RT112; Table 3, measurement after 20 minutes, 800 ng/ml, initial pH 6.0
  OD (405–490 nm): 1.681
RT112; Table 3, measurement after 20 minutes, 800 ng/ml, initial pH 6.5
  OD (405–490 nm): 1.708
RT112; Table 3, measurement after 20 minutes, 800 ng/ml, initial pH 7.0
  OD (405–490 nm): 1.791
RT112; Table 3, measurement after 20 minutes, 800 ng/ml, initial pH 7.4
  OD (405–490 nm): 2.217

## COc1ccc(C(=O)O)c(OC)c1 [Substance 188, 2,4-dimethoxybenzoic acid]
RT112; [6]
  OD (405–490 nm): 0.256
RT112; [7]
  OD (405–490 nm): 0.309
RT112; [8]
  OD (405–490 nm): 0.502
RT112; [9]
  OD (405–490 nm): 1.854
